Measured values published in PubChem BioAssay (NCI).
Where “and” joins values, the source holds several entries; their conditions need not be identical. Equal values may be shown once.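 Results reflect a 48-hour exposure of cells in 96-well plates to compound at five concentrations. Abbreviation: GI50, concentration required for 50% inhibition of growth. TGI is the concentration that stops growth completely.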

The compounds below were run on LOX IMVI melanoma (assay: DTP human tumour cell line panel, 48 h).
`CN1CCN(C(=O)OCc2nc3c(N4CCOCC4)nc(Cl)nc3n2C)CC1` showed a GI50 of 0.579 µM and a TGI of 1.99 µM. In the case of `COC(=O)c1c/c(=N\NC(=O)CC(=O)Nc2ccccc2OC)c2ccccc2o1`, the TGI is reported as over 100 µM. Compound `NC(CCC(=O)NC(CSSCCCCS(=O)O)C(=O)NCC(=O)O)C(=O)O` (stereo unspecified) has a TGI of over 100 µM. For `COC12C=C(C)C(CC1)CC2C(=O)O` (stereo unspecified), the TGI was over 100 µM. In the case of `OCC(O)CC[CH2][Sn]([Br])([c]1ccccc1)[c]1ccccc1` (stereo unspecified), the GI50 is reported as over 100 µM and the TGI is reported as over 100 µM. With `CCc1ccc(/C=C\c2cc(OC)c(OC)c(OC)c2)cc1` the TGI was 0.581 µM. For `O=c1c2cc([N+](=O)[O-])ccc2sc2ccsc12`, the TGI was over 100 µM. `COc1ccc(C2=CC3CCC2C3)cc1` (stereo unspecified) showed a TGI of over 100 µM. `C=C1C(=O)O[C@H]2[C@H]1CC/C(Cn1cc(-c3ccc(OC)cc3)nn1)=C\CC[C@@]1(C)O[C@@H]21` gave a GI50 of 1.16 µM and a TGI of 2.51 µM. Compound `[Cl-].[Dy+3].[O-]/N=C(\c1ccccc1)c1ccccn1.[O-]/N=C(\c1ccccc1)c1ccccn1.[O-]/N=C(\c1ccccc1)c1ccccn1` has a GI50 of 21.9 µM and a TGI of 54.1 µM. With `CC(=O)OCCN1c2ccccc2Sc2cnccc21` the TGI was over 10 µM. `CC(C)(CC(=O)Nc1ccccc1)C(=O)O` was tested, and the TGI was over 100 µM. Compound `COc1ccc(/C(COc2c(-c3ccccc3)oc3ccccc3c2=O)=N\O)cc1` has a GI50 of 12.4 µM and a TGI of 26.5 µM. Compound `NC(=O)C(=O)N/N=C(\CC1(O)C(=O)Nc2ccccc21)c1ccc2ccccc2c1` (stereo unspecified) has a TGI of 85.5 µM. `Cc1cc2c(cc1C)[n+](=O)c(C(=O)C/C(=N/NC(=O)CC#N)C(=O)Nc1ccccc1C(F)(F)F)c(C)n2[O-]` gave a TGI of over 100 µM. With `COC(=O)/C(=N/NC(=O)C[N+](C)(C)C)C(C(=O)OC)C(=O)C(=O)Nc1ccc(F)cc1` (stereo unspecified) the TGI was over 100 µM. Compound `O=C(c1ccccc1)c1nnc(C(=O)c2ccccc2)nn1` has a TGI of over 344 µM. `Brc1cccc(C=NC23CC4CC(CC(C4)C2)C3)c1` showed a TGI of over 100 µM. In the case of `CC(C)c1nc(CN(C)C(=O)N[C@H](C(=O)N[C@@H](Cc2ccccc2)C[C@H](O)[C@H](Cc2ccccc2)NC(=O)OCc2cncs2)C(C)C)cs1`, the GI50 is reported as 18.9 µM and the TGI is reported as 40.1 µM. For `CCC[CH2][Sn]([CH2]CCC)([O]C(=O)c1cccnc1SC)[O]C(=O)c1cccnc1SC`, the GI50 was 0.302 µM and the TGI was 1.37 µM. With `O=C1O[C@@H](c2ccc3c(c2)OCO3)C2C(=O)O[C@@H](c3ccc4c(c3)OCO4)C12` (stereo partly specified) the TGI was over 100 µM. With `O=C1CCC(=O)N2CCCCN12` the TGI was over 100 µM. In the case of `CC(C)C(=O)NC(=S)Nc1ccc([N+](=O)[O-])cc1C#N`, the TGI is reported as over 100 µM. `C/C(CC(=O)Nc1cc(Cl)c(Cl)cc1Cl)=N\NC(N)=O` showed a TGI of over 100 µM. With `N#Cc1cc([N+](=O)[O-])ccc1NC(=O)C(=O)Nc1n[nH]c(N)n1` the TGI was over 100 µM. In the case of `O=C(/C=C/c1c(O)ccc2ccccc12)c1cccc(O)c1`, the TGI is reported as over 72.1 µM. In the case of `CC1=NN(C(=O)Nc2ccccc2)C(=O)C2CCC(=O)N12` (stereo unspecified), the TGI is reported as over 100 µM. Compound `COC(=O)C1Cc2c(n(Cc3ccccc3)c3ccccc23)C(CCC(=O)O)N1C(C)C` (stereo unspecified) has a TGI of over 100 µM. `O=C(O)CNS(=O)(=O)c1ccc(NCc2ccccc2)cc1` was tested, and the TGI was over 100 µM. With `CC(C)(C)C1C=C(Sc2ccccc2)C(=O)O1` (stereo unspecified) the TGI was over 100 µM. `CCC[CH2][Sn]1([CH2]CCC)[O]Cc2nc(C)ccc2[O]1` showed a GI50 of 1.95 µM and a TGI of 3.97 µM. For `O=c1/c(=C/c2ccco2)sc2nc3ccccc3n12`, the GI50 was over 100 µM and the TGI was over 100 µM. `O=C1CCC2(c3ccc(F)cc3)Nc3cc(Cl)ccc3N12` (stereo unspecified) gave a TGI of over 100 µM. `C/C(CC(=O)Nc1ccc(C)cc1C)=N/N=C(N)N` was tested, and the TGI was over 100 µM.

Each compound was assayed on A498 renal (assay: DTP human tumour cell line panel, 48 h).
With `CN1CCN(C(=O)OCc2nc3c(N4CCOCC4)nc(Cl)nc3n2C)CC1` the GI50 was 1.15 µM and the TGI was 2.46 µM. `COC(=O)c1c/c(=N\NC(=O)CC(=O)Nc2ccccc2OC)c2ccccc2o1` gave a TGI of over 100 µM. `NC(CCC(=O)NC(CSSCCCCS(=O)O)C(=O)NCC(=O)O)C(=O)O` (stereo unspecified) was tested, and the TGI was over 100 µM. `COC12C=C(C)C(CC1)CC2C(=O)O` (stereo unspecified) gave a TGI of over 100 µM. With `CCc1ccc(/C=C\c2cc(OC)c(OC)c(OC)c2)cc1` the GI50 was 0.0233 µM and the TGI was 0.433 µM and 0.389 µM. `O=c1c2cc([N+](=O)[O-])ccc2sc2ccsc12` was tested, and the TGI was over 100 µM. In the case of `COc1ccc(C2=CC3CCC2C3)cc1` (stereo unspecified), the TGI is reported as over 100 µM. Compound `C=C1C(=O)O[C@H]2[C@H]1CC/C(Cn1cc(-c3ccc(OC)cc3)nn1)=C\CC[C@@]1(C)O[C@@H]21` has a GI50 of 2.35 µM and a TGI of 11.3 µM. Work on `[Cl-].[Dy+3].[O-]/N=C(\c1ccccc1)c1ccccn1.[O-]/N=C(\c1ccccc1)c1ccccn1.[O-]/N=C(\c1ccccc1)c1ccccn1` yielded a GI50 of 25.8 µM and a TGI of over 100 µM. `CC(=O)OCCN1c2ccccc2Sc2cnccc21` was tested, and the TGI was over 10 µM. `CC(C)(CC(=O)Nc1ccccc1)C(=O)O` gave a TGI of over 100 µM. For `NC(=O)C(=O)N/N=C(\CC1(O)C(=O)Nc2ccccc21)c1ccc2ccccc2c1` (stereo unspecified), the TGI was 82.1 µM. In the case of `Cc1cc2c(cc1C)[n+](=O)c(C(=O)C/C(=N/NC(=O)CC#N)C(=O)Nc1ccccc1C(F)(F)F)c(C)n2[O-]`, the TGI is reported as over 100 µM. Compound `COC(=O)/C(=N/NC(=O)C[N+](C)(C)C)C(C(=O)OC)C(=O)C(=O)Nc1ccc(F)cc1` (stereo unspecified) has a TGI of over 100 µM. `Brc1cccc(C=NC23CC4CC(CC(C4)C2)C3)c1` gave a TGI of over 100 µM. `CC(C)c1nc(CN(C)C(=O)N[C@H](C(=O)N[C@@H](Cc2ccccc2)C[C@H](O)[C@H](Cc2ccccc2)NC(=O)OCc2cncs2)C(C)C)cs1` showed a GI50 of 19.1 µM and a TGI of 43.2 µM. `CCC[CH2][Sn]([CH2]CCC)([O]C(=O)c1cccnc1SC)[O]C(=O)c1cccnc1SC` gave a GI50 of 0.676 µM and a TGI of 1.95 µM. In the case of `O=C1O[C@@H](c2ccc3c(c2)OCO3)C2C(=O)O[C@@H](c3ccc4c(c3)OCO4)C12` (stereo partly specified), the TGI is reported as over 100 µM. `O=C1CCC(=O)N2CCCCN12` gave a TGI of over 100 µM. In the case of `CC(C)C(=O)NC(=S)Nc1ccc([N+](=O)[O-])cc1C#N`, the TGI is reported as over 100 µM. Work on `N#Cc1cc([N+](=O)[O-])ccc1NC(=O)C(=O)Nc1n[nH]c(N)n1` yielded a TGI of over 100 µM. Compound `O=C(/C=C/c1c(O)ccc2ccccc12)c1cccc(O)c1` has a TGI of over 100 µM. `CC1=NN(C(=O)Nc2ccccc2)C(=O)C2CCC(=O)N12` (stereo unspecified) showed a TGI of over 100 µM. With `COC(=O)C1Cc2c(n(Cc3ccccc3)c3ccccc23)C(CCC(=O)O)N1C(C)C` (stereo unspecified) the TGI was over 100 µM. In the case of `CC(C)(C)C1C=C(Sc2ccccc2)C(=O)O1` (stereo unspecified), the TGI is reported as over 100 µM. Work on `CCC[CH2][Sn]1([CH2]CCC)[O]Cc2nc(C)ccc2[O]1` yielded a GI50 of 13.3 µM and a TGI of 26.8 µM.
